# Results: US11013752B2, “Combination therapies for inner ear sensory hair cell regeneration/replacement” (Hough Ear Institute, priority 2016, dated 2021)
# “Also recorded” adds a separate entry of the source.
# What was measured:
# [1] = tested on: neonatal murine utricular maculae; experiment: BIO, siHes1 and GSI in neomycin-damaged utricle cultures; type: cell-based, CD1 mice; conditions: NEO-ablated utricles; BIO 2.5 μM, 20 nM Hes1 siRNA, GSI 5 μM
# Protocol: To assess whether BIO can enhance the therapeutic efficacy of Hes1 siRNA in regenerating HCs following a toxic insult, neonatal murine utricular tissues were exposed to neomycin (NEO) and then either left untreated or were treated with one or both of the therapeutic agents. After a total of 8 days in vitro, tissues were fixed and labeled with the HC marker, Myo7a. ###, p<0.001 difference in Myo7a-postive cells relative to untreated controls. *, **, and ***, p<0.05, 0.01, and 0.001, respectively, with respect to significant differences in the number of Myo7a-postive cells between treatment groups.
# Organotypic cultures from murine utricular maculae (balance organ sensory epithelia) were cultured and then harvested on postnatal day 3 (P3) from CD1 mice. These explants were then cultured in appropriate media for twenty-four hours. […] All cultures were then maintained in media without either of the test agents for a final 24 h, after which tissues were fixed in 4% paraformaldehyde solution and subjected to immunolabeling with an antibody against the hair cell marker, myosin VIIa (Myo7a), and an appropriate secondary antibody for subsequent immunofluorescence-mediated quantification of HCs along the length of the cochlear spiral (FIGS. 14-17).
# [2] = tested on: Madin-Darby Canine Kidney (MDCK) cells; type: cell-based
# Protocol: FIG. 19 depicts representative images of GSK3I-mediated proliferation in serum-starved MDCK cells. Cells were initially cultured in the presence of 10% fetal bovine serum (FBS) and then switched to serum-free media for 24 hours prior to the addition of 0.2% serum-containing media which included GSK3Is at the indicated concentrations in the presence of 10 μM EdU. Cells were cultured an additional 48 h prior to fixation and visualization of EdU-positive nuclei (green) via conjugation of AlexaFluor488 azide in a copper-catalyzed cycloaddition (“Click” reaction, Click-iT Edu, Life Technologies). Total nuclei were stained with DAPI (blue). NC, normal control or untreated cells cultured in the presence of 10% FBS throughout the experimental time course.
# EdU-positive nuclei from imaged fields of MDCK cells cultured as described in FIG. 13 were quantified using ImageJ software (NIH) and graphed as the averaged percentile of the number of EdU-positive cells relative to the total number of DAPI-stained nuclei in each field. A minimum of four fields of cells for each experimental condition were included in this analysis. (* and ***, p<0.05 and 0.001, respectively, for statistically significant increases in EdU-positive nuclei relative to untreated, serum-starved controls).
# Tideglusib was procured from Cayman Chemical Company and performed a dose curve analysis under serum starvation conditions with Madin-Darby Canine Kidney (MDCK) cells in parallel with a series of commercially-available GSK3 inhibitors to ascertain its relative proliferative potential under mitotically-suppressed conditions in this well-established mammalian epithelial cell line. In these experiments, MDCK cells were cultured under serum starvation conditions for 24 hours prior to culturing cells for 48 hours in the presence of GSK3 inhibitors and 10 μM EdU (5-ethynyl-2′-deoxyuridine), a nucleoside analog that permanently marks cells that have undergone DNA replication.
# [3] = tested on: organotypic cultures of murine OCs; experiment: Hair cell counts in neomycin-damaged OC cultures treated with TIDE and/or siHES1 lipofection complexes; type: cell-based
# Protocol: FIG. 22 depicts hair cells (Myo7a+ cells) quantified from the mid-apical and middle regions of organotypic cultures of murine OCs following a 24 h exposure to neomycin (0.7 mM) and subsequent recovery in the presence or absence of the GSK3 inhibitor Tideglusib (TIDE) and/or siHES1 (20 nM) lipofection complexes (JetSI, Polyplus).
# FIG. 23 depicts hair cells (Myo7a+ cells) quantified from the mid-apical and middle regions of organotypic cultures of murine OCs following a 24 h exposure to neomycin (0.7 mM) and subsequent recovery in the presence or absence of the GSK3 inhibitor Tideglusib (TIDE) and/or siHES1 (20 nM) lipofection complexes (JetSI, Polyplus).
# FIG. 25 depicts hair cells (Myo7a+ cells) quantified from the mid-apical, middle, and mid-basal regions of organotypic cultures of murine OCs following a 24 h exposure to neomycin (0.7 mM) and subsequent recovery in the presence or absence of the GSK3 inhibitor Tideglusib (TIDE) and/or siHES1 (20 nM) lipofection complexes (JetSI, Polyplus). One set of NEO-ablated OCs were treated with TIDE then siHes1 in the presence of 2 ng/mL FGF-2 as a media supplement with the aim of potentially enhancing the effects of Tideglusib.
# The protocol described above for BIO is used, substituting the addition of BIO for 10.0 μM Tideglusib (TIDE). A third treatment group is added, where Tideglusib is included in the culture medium after siHes1, parallel to the other protocols: on P4 or P5 (depending on whether there was an ototoxic insult to simulate hair cell loss) the control media is added with or without the inclusion of 10.0 μM TIDE; on P7 siHes1 is added in the presence of absence of TIDE; and on P9 10.0 μM Tideglusib is included in the media for a subset of cultures. On P11, all media is replaced with fresh media without any therapeutics. On P12, the tissues are fixed for immunolabeling. An example of comparative analyses from this treatment paradigm, following an exposure to the ototoxic aminoglycoside, NEO, is depicted in FIG. 22.
# This experimental paradigm was again repeated adding additional treatment groups where FGF-2 was optionally included in the culture medium at 2 ng/mL at P5, P7, and P9 for a subset of cultures.
# [4] = tested on: Hes1 transcript in IMO-2B1 murine inner ear cell line; experiment: Hes1 knockdown efficiency by RT-qPCR, transfected siHES1 molecules; type: cell-based; conditions: IMO-2B1, RNAiMAX, 48 hours after transfection
# Excerpt: FIG. 27 depicts reverse transcription-quantitative polymerase chain reaction (RT-qPCR) results from comparative dose curve analyses of Hes1 knockdown efficiency relative to mock-treated controls in a murine inner ear cell line (IMO-2B1), using two distinct siHES1 molecules with conserved target sites among mammalian Hes1 transcripts. SiRNA molecules were transfected into sub-confluent wells of IMO-2B1, using a commercial transfection agent (RNAiMAX, ThermoFisher Sci.). Forty-eight hours after transfection, total RNA was isolated and subjected to RT-qPCR analyses, using primers against Hes1 and the house keeping gene GAPDH. Relative Hes1 levels were determined by the 2^−ΔΔCT method (See Livak and Schmittgen (2001) Methods 25(4):402-408, incorporated by reference in its entirety). The apparent potency of molecule #7 for depleting Hes1 transcript levels was considerably greater than that of molecule #1, as optimal knockdown using molecule #7 was observed using as little as 2 nM siRNA (relative to ˜20 nM required for molecule #1).
# [5] = neomycin 0.7 mM 24 h, 10.0 μM TIDE, siHES1 20 nM lipofection complexes (FIG. 22)
compound,measurement,setting,value
"O=C1Nc2cc(Br)ccc2/C1=C1/Nc2ccccc2/C1=N\O [BIO, 6-bromoindirubin-3′-oxime]",HC numbers (Myo7a-positive cells) in striolar/extrastriolar region,[1],increased HC numbers within the striolar region
same,proliferative response (EdU-positive nuclei),"[2]; serum-starved MDCK, 48 h, across dose range tested (up to 10 μM)",reduced numbers of EdU-positive nuclie
Cc1c[nH]c(-c2cnc(NCCNc3ccc(C#N)cn3)nc2-c2ccc(Cl)cc2Cl)n1 [CHIR-99021],number of EdU-positive nuclei,"[2]; 10 μM, relative to untreated serum-starved cells","statistically insignificant relative to untreated, serum-starved cells"
same,mitotically-active cells (EdU-positive nuclei),"[2]; low-dose (0.1 μM), serum starvation","robust, statistically-significant increase in mitotically-active cells"
"C[C@H](NC(=O)Cc1cc(F)cc(F)c1)C(=O)N[C@@H]1C(=O)N(C)c2ccccc2-c2ccccc21 [GSI, deshydroxy LY 411575]",HC numbers (Myo7a-positive cells) in striolar/extrastriolar region,[1],increased HC numbers within the striolar region
"[Cl-].[Li+] [LiC1, lithium chloride]",EdU-positive cells,"[2]; 10 mM, relative to identical dose of sodium chloride",increased numbers of EdU-positive cells
"NC[C@@H]1O[C@H](O[C@H]2[C@@H](O)[C@H](O[C@@H]3[C@@H](O)[C@H](N)C[C@H](N)[C@H]3O[C@H]3O[C@H](CN)[C@@H](O)[C@H](O)[C@H]3N)O[C@@H]2CO)[C@H](N)[C@@H](O)[C@@H]1O [NEO alone, neomycin]","Hair Cell Counts ± SEM, Mid-apical turn",[3]; [5],5.1 ± 1.1
same,"Hair Cell Counts ± SEM, Middle Turn",[3]; [5],2.5 ± 0.8
FGF-2: basic fibroblast growth factor used as media supplement,effect of FGF-2 media supplement on HC regeneration,"[3]; 2 ng/mL FGF-2, NEO-ablated OCs, with or without TIDE then siHes1",did not elicit a therapeutic response on its own; also recorded: potentiated the therapeutic effects of TIDE/siHES1 treatment through the mid-basal turn of the OC
"Molecule 1: siRNA, murine Hes1 mRNA nt 239-257, SEQ ID NO: 1 and 2 (chain 1 CAGCUGAUAUAAUGGAGAATT; chain 2 UUCUCCAUUAUAUCAGCUGTT; chemistry not given here)",siRNA concentration for optimal Hes1 knockdown,[4],~20 nM
"Molecule 7: siRNA, human Hes1 mRNA nt 673-691, SEQ ID NO: 13 and 14 (chain 1 ACUGCAUGACCCAGAUCAA; chain 2 UUGAUCUGGGUCAUGCAGU; listed as RNA, chemistry not given here)",siRNA concentration for optimal Hes1 knockdown,[4],2 nM
